Source: patent publication US8197860B2, “Method for enhancing nutrient absorption with astragalosides” (Nuliv Holding Inc., priority 2005, dated 2012)

What was measured:
Type in all cases: cell-based, human
Caco2 cells [1] = test: Glucose uptake assay; design: key to * (regulatory effect on glucose uptake): ↑: the arrows that point up represent the enhancing effect on the glucose uptake; conditions: for Regulatory effects on the glucose uptake of the Caco2 cells: Table 2 summary; for Uptake rate (glucose): 48 hours, 25 mM glucose
Description: (§1) To evaluate the effect of the isolated astragaloside compound on the uptake of nutrient substances across the intestinal lumen, Caco-2 cells were grown on permeable filter as an experimental model. Caco2 cells originate from human colonic adenocarcinoma and spontaneously differentiate into an enterocyte-like phenotype after two weeks. The Caco-2 cell line, derived from a human colorectal carcinoma, has been used as an in vitro model system for studying drug absorption in gastrointestinal tract. These cells form monolayers with well-developed tight-junctions, and have been evaluated in details as an in vitro model to study both transcellular transport of nutrients and drugs in intestinal lumen.
(§2) Caco-2 cells were obtained from the ATCC (American Type Culture Collection). The cells were maintained in Dulbecco's modified Eagle medium (DMEM) containing 4.5 g/L glucose and 25 mM Hepes, supplemented with 10% fetal calf serum, 100 U/mL penicillin G and […]. The medium was changed every second day. The cells were routinely checked for Mycoplasma in monthly intervals. Caco-2 cells were cultured on semi-permeable membranes to differentiate into a highly functionalized epithelial barrier with remarkable morphological and biochemical similarity to the small intestinal columnar epithelium. The Caco-2 cell monolayers could therefore be used to study the membrane transport properties of many compounds. To trypsinize the cells, the culture dish was washed once with phosphate-buffered saline (PBS) followed by adding trypsine-EDTA for 10 minutes. The trypsinized cells were separated and filtered into single cells using a 35-μm strainer cap (Falcon 2235) before being seeded for further experiments.
(§3) Caco-2 cells (5×10^4) were seeded in a 48-well plate and maintained in culture medium (DMEM with 10% FBS, 1% nonessential amino acids, L-glutamine, penicillin G (100 U/mL), streptomycin (10 μg/mL), and amphotericin B (2.5 μg/mL) in a 37° C. incubator for 10 days for the cells to differentiate. The culture medium was changed once every two days. The cells were then washed with PBS before replenishing with the culture medium containing 5% FBS and various astragalosides at the indicated concentrations (0.01, 0.1 and 1 μM) for 48 hours. The Caco2 cells were washed out of remaining glucose with PBS and replaced in the glucose buffer (80 mM NaCl, 100 mM mannitol, 20 mM Tris-HCl, pH 7.4, 3 mM K2HPO4, 1 mM CaCl2, 1 mg/mL BSA) for 1 hour. Glucose uptake was initiated by replacing the glucose buffer with 0.2 ml of glucose buffer containing 2 μCi/mL of ^14C-glucose and unlabeled cold glucose to give a final glucose concentration of 25 mM. Glucose uptake was stopped by removing the glucose buffer and washing with PBS at designated time intervals. The cells were lysed in 0.2 mL of 0.2 N NaOH, and 20 μL of the cell lysate were transferred to the filter-bottomed UniFilter plates (Perkin-Elmer, Wellesley, Mass., USA) and dried in a vacuum oven at 37° C. The bottom of the UniFilter plate was sealed and 25 μL of the counting solution were added into each well. Adhesive plate sealers were used in place of the lids and radioactivity of each sample was counted using the microplate liquid scintillation counter (TopCount, Packard NXT, Packard BioScience Company, Meriden, Conn., USA). The amount of glucose accumulated in the cells was calculated and normalized to protein concentration, and uptake rate was expressed as nanomoles of glucose per minutes per milligram of cell protein (nmol/min/mg). Protein concentration was determined by a standard Bicinchoninic acid (BCA) protein assay. Nonspecific glucose uptake was measured by adding 2 μCi of L-[^14C]-glucose and subtracting from each determination to obtain specific glucose uptake.

Caco-2 cell monolayer [2] = test: Arginine absorption assay (transport across Caco-2 cell monolayer); design: key to * (regulatory effect on arginine transport): ↑: the arrows that point up represent the enhancing effect on the arginine transport; conditions: for Regulatory effects on the arginine transport across the Caco2 cell monolayer: Table 3 summary; for Transport rate (arginine): 10 mM L-arginine apical; for Arginine transport rate: concentration from 0.01 μM to 1 μM
Description: as §1, §2
(§4) In measuring transport of arginine across the Caco-2 cell monolayer, both sides of the transwells were washed with arginine incubation buffer consisting of: 137 mM NaCl, 10 mM Hepes, 0.3 mM NaH2PO4, 0.3 mM K2HPO4, 5.4 mM KCl, 2.8 mM CaCl2, 1 mM MgSO4, 10 mM glucose, adjusted to pH 7.4. Then, the cell layer was preincubated in the incubation buffer at 37° C. for 1 h. The volume of incubation buffer was 0.2 mL and 0.9 mL in the apical and basolateral chambers, respectively. The cells were replaced with fresh incubation medium in both chambers prior to the transport experiment. The transport experiment was initiated by replacing the incubation solution on the apical side with solution containing 10 mM of L-arginine in which 0.125 μCi/mL of L-[^3H]-arginine was included. At designated time intervals, 10 μL-solution samples were removed from the basolateral side and radioactivity of each sample was counted using a microplate liquid scintillation counter (TopCount, Packard NXT). During the experiment, when a 10 μL-solution sample was removed from the basolateral side every time, 10 μL buffer was supplemented to keep the volume constant. The uptake of [^3H]-mannitol was used to correct for nonspecific transport of molecules across the monolayer membrane. Results were expressed as the nanomoles of arginine transport across the Caco-2 cell monolayers with respect to time in minutes (nmol/min).

Caco-2 cell monolayer [3] = test: Tryptophan absorption assay (transport across Caco-2 cell monolayer); design: key to * (regulatory effect on tryptophan transport): ↑: the arrows that point up represent the enhancing effect on the tryptophan transport; conditions: for Regulatory effects on the tryptophan transport across the Caco2 cell monolayer: Table 4 summary; for Tryptophan transport rate: concentration from 0.01 μM to 1 mM
Description: as §1, §2, §4
The experimental procedures similar to those in Example 2 were used for measuring the uptake of tryptophan molecules across the Caco-2 membrane, except using a tryptophan incubation buffer consisting of 137 mM choline chloride, 10 mM Hepes, 0.6 mM KH2PO4, 5.4 mM KCl, 2.8 mM CaCl2, 1 mM MgSO4, and 10 mM glucose, and having its pH adjusted to 7.4. Results were expressed as the nanomoles of tryptophan transport across the Caco-2 cell monolayers with respect to time in minutes (nmol/min).

Caco2 cells [4] = test: Folate uptake assay; design: key to * (regulatory effect on folate uptake): ↑: the arrows that point up represent the enhancing effect on folate uptake; conditions: compound 0.1 μM; for Uptake rate (folate): 2 days, 5 μM folate, pH 6.0
Description: as §1, §2, §3
The Caco2 cells were subjected to folate uptake test in a manner similar to that described in the glucose uptake assay in Example 1 above. […]

Structure (SMILES)	Regulatory effects on the glucose uptake of the Caco2 cells (Caco2 cells [1])	* (regulatory effect on glucose uptake) (Caco2 cells [1]; compound 0.01 μM)	Percentage (glucose uptake, control = 100) (Caco2 cells [1]; compound 0.01 μM) [%]	Uptake rate (glucose) (Caco2 cells [1]; compound 0.01 μM) [nmol/mg/min]	* (regulatory effect on glucose uptake) (Caco2 cells [1]; compound 0.1 μM)	Percentage (glucose uptake, control = 100) (Caco2 cells [1]; compound 0.1 μM) [%]	Uptake rate (glucose) (Caco2 cells [1]; compound 0.1 μM) [nmol/mg/min]	* (regulatory effect on glucose uptake) (Caco2 cells [1]; compound 1 μM)	Percentage (glucose uptake, control = 100) (Caco2 cells [1]; compound 1 μM) [%]	Uptake rate (glucose) (Caco2 cells [1]; compound 1 μM) [nmol/mg/min]	Regulatory effects on the arginine transport across the Caco2 cell monolayer (Caco-2 cell monolayer [2])	* (regulatory effect on arginine transport) (Caco-2 cell monolayer [2]; compound 0.01 μM)	Percentage (arginine transport, control = 100) (Caco-2 cell monolayer [2]; compound 0.01 μM) [%]	Transport rate (arginine) (Caco-2 cell monolayer [2]; compound 0.01 μM) [nmol/min]	* (regulatory effect on arginine transport) (Caco-2 cell monolayer [2]; compound 0.1 μM)	Percentage (arginine transport, control = 100) (Caco-2 cell monolayer [2]; compound 0.1 μM) [%]	Transport rate (arginine) (Caco-2 cell monolayer [2]; compound 0.1 μM) [nmol/min]	* (regulatory effect on arginine transport) (Caco-2 cell monolayer [2]; compound 1 μM)	Percentage (arginine transport, control = 100) (Caco-2 cell monolayer [2]; compound 1 μM) [%]	Transport rate (arginine) (Caco-2 cell monolayer [2]; compound 1 μM) [nmol/min]	other results
CC(C)(O)[C@@H]1CC[C@](C)([C@H]2[C@@H](O)C[C@@]3(C)[C@@H]4C[C@H](O[C@@H]5O[C@H](CO)[C@@H](O)[C@H](O)[C@H]5O)[C@H]5C(C)(C)[C@@H](O[C@@H]6OC[C@@H](O)[C@H](O)[C@H]6O)CC[C@@]56C[C@@]46CC[C@]23C)O1 [AS4, astragaloside IV]	had regulatory effects on the glucose uptake	↑	183.15	11.670 ± 2.5800	↑	164.16	10.460 ± 2.6690	↑	141.27	9.0020 ± 1.8300	had regulatory effects on the arginine transport	↑	156.52	16.7245 ± 0.2890	↑	172.73	18.4575 ± 0.5955	↑	161.19	17.2241 ± 0.3759	Glucose uptake rate versus control group (Caco2 cells [1]; FIG. 1, selected concentrations): much higher glucose uptake rate than the control group; Arginine transport rate (Caco-2 cell monolayer [2]): increased; Regulatory effects on the tryptophan transport across the Caco2 cell monolayer (Caco-2 cell monolayer [3]): had regulatory effects on the tryptophan transport; * (regulatory effect on tryptophan transport) (Caco-2 cell monolayer [3]; compound 0.01 μM): ↑; Percentage (tryptophan transport, control = 100) (Caco-2 cell monolayer [3]; compound 0.01 μM): 113.29%; Transport rate (tryptophan) (Caco-2 cell monolayer [3]; compound 0.01 μM): 10.130 ± 0.7025 nmol/min; * (regulatory effect on tryptophan transport) (Caco-2 cell monolayer [3]; compound 0.1 μM): ↑; Percentage (tryptophan transport, control = 100) (Caco-2 cell monolayer [3]; compound 0.1 μM): 142.36%; Transport rate (tryptophan) (Caco-2 cell monolayer [3]; compound 0.1 μM): 12.730 ± 0.4470 nmol/min; * (regulatory effect on tryptophan transport) (Caco-2 cell monolayer [3]; compound 1 μM): ↑; Percentage (tryptophan transport, control = 100) (Caco-2 cell monolayer [3]; compound 1 μM): 108.07%; Transport rate (tryptophan) (Caco-2 cell monolayer [3]; compound 1 μM): 9.6640 ± 0.2770 nmol/min; Tryptophan transport rate (Caco-2 cell monolayer [3]): increased; * (regulatory effect on folate uptake) (Caco2 cells [4]): ↑; Percentage (folate uptake vs own control) (Caco2 cells [4]): 135.12%; Uptake rate (folate) (Caco2 cells [4]): 75.710 ± 5.2390 pmol/mg/min
CC(C)(O)[C@@H]1CC[C@](C)([C@H]2[C@@H](O)C[C@@]3(C)[C@@H]4C[C@H](O[C@@H]5O[C@H](CO)[C@@H](O)[C@H](O)[C@H]5O)[C@H]5C(C)(C)[C@@H](O[C@@H]6OC[C@@H](O)[C@H](O)[C@H]6O[C@@H]6O[C@H](CO)[C@@H](O)[C@H](O)[C@H]6O)CC[C@@]56C[C@@]46CC[C@]23C)O1 [AS6, astragaloside VI]	had regulatory effects on the glucose uptake	↑	119.84	7.6360 ± 1.7330	↑	109.97	7.0070 ± 1.9470	↑	122.49	7.8050 ± 1.1830	had regulatory effects on the arginine transport	↑	130.35	13.9283 ± 1.7330	↑	140.36	14.9986 ± 1.3200	↑	127.22	13.5942 ± 1.2760	Arginine transport rate (Caco-2 cell monolayer [2]): increased; Regulatory effects on the tryptophan transport across the Caco2 cell monolayer (Caco-2 cell monolayer [3]): had regulatory effects on the tryptophan transport; * (regulatory effect on tryptophan transport) (Caco-2 cell monolayer [3]; compound 0.01 μM): ↑; Percentage (tryptophan transport, control = 100) (Caco-2 cell monolayer [3]; compound 0.01 μM): 173.45%; Transport rate (tryptophan) (Caco-2 cell monolayer [3]; compound 0.01 μM): 15.510 ± 0.3688 nmol/min; * (regulatory effect on tryptophan transport) (Caco-2 cell monolayer [3]; compound 0.1 μM): ↑; Percentage (tryptophan transport, control = 100) (Caco-2 cell monolayer [3]; compound 0.1 μM): 151.87%; Transport rate (tryptophan) (Caco-2 cell monolayer [3]; compound 0.1 μM): 13.850 ± 0.6567 nmol/min; * (regulatory effect on tryptophan transport) (Caco-2 cell monolayer [3]; compound 1 μM): ↑; Percentage (tryptophan transport, control = 100) (Caco-2 cell monolayer [3]; compound 1 μM): 173.23%; Transport rate (tryptophan) (Caco-2 cell monolayer [3]; compound 1 μM): 15.490 ± 0.2161 nmol/min; Tryptophan transport rate (Caco-2 cell monolayer [3]): increased; * (regulatory effect on folate uptake) (Caco2 cells [4]): ↑; Percentage (folate uptake vs own control) (Caco2 cells [4]): 140.37%; Uptake rate (folate) (Caco2 cells [4]): 84.560 ± 4.7200 pmol/mg/min
